These are literature values, as cited in patent US20190314382A1, “COMPOUNDS AND PHARMACEUTICAL COMPOSITIONS THEREOF FOR THE TREATMENT OF INFLAMMATORY DISEASES” (Galapagos NV, priority 2016, published 2019).

Molecules are shown by their SMILES.

This series has as its system MRL/lpr mice. The conditions noted are these: cited from earlier work.

Regarding `N#C/C(=C\c1ccc(O)c(O)c1)C(=O)NCc1ccccc1` [tyrphostin AG490], the “renal expression of monocyte chemotactic protein (MCP)-1, interferon (IFN)-γ and class II MHC” value was “significantly inhibited”; the “renal infiltration of T cells and macrophages” value is recorded as “reduced”.
